Results published in article PMC6264177, “Synthesis and Characterization of (Z)-5-Arylmethylidene-rhodanines with Photosynthesis-Inhibiting Properties ^†” (Molecules, 2011).
Values joined by “and” are separate entries in the source; they are usually repeats but may differ in a detail not shown here. Equal values may be shown once. Read-outs that look alike come from different tables or passages of the source.

Experiments:
[1] = system: seeds of Sesamum indicum; parameters: method as in doi:10.1271/bbb.60.1368; conditions: 1 mmol/L; ref [13]; cited from earlier work
[2] = system: photosynthetic electron transport; parameters: method as in doi:10.1584/jpestics.22.1; conditions: ref [14], read-out: IC50 of PET inhibition, cited from earlier work
[3] = system: cotyledons of Brassica rapa L.; conditions: 0.3 mmol/L; ref [11]; cited from earlier work
[4] = system: Daucus carota L. var. sativa DC; parameters: method as in doi:10.1271/bbb.60.1368; conditions: 0.3 mmol/L; ref [13]; cited from earlier work
[5] = system: immature cells of Marchantia polymorpha; parameters: method as in doi:10.1584/jpestics.22.1; conditions: 1 mmol/L, within 90 hours; ref [14]; cited from earlier work
[6] = system: seeds of Daucus carota L. var. sativa DC; parameters: method as in doi:10.1271/bbb.60.1368; conditions: 1 mmol/L; ref [13]; cited from earlier work
[7] = Lipophilicity HPLC determination (capacity factor k / log k); assay type: physicochemical; conditions: RP-HPLC, C18 column, isocratic, MeOH 70% / H2O 30%
Description: The procedure was performed under isocratic conditions with methanol as an organic modifier in the mobile phase using an end-capped non-polar C18 stationary RP column. […] The HPLC separation process was monitored by Empower™ 2 Chromatography Data Software, Waters 2009 (Waters Corp., Milford, MA, USA). […] The detection wavelength of 210 nm was chosen. The KI methanolic solution was used for the dead time (tD) determination. Retention times (tR) were measured in minutes. […] Log k, calculated from the capacity factor k, is used as the lipophilicity index converted to log P scale.

[8] = system: photosynthetic electron transport (PET) in spinach chloroplasts; assay: Inhibition of photosynthetic electron transport (PET) in spinach chloroplasts, DCPIP photoreduction; assay type: biochemical, Spinacia oleracea L.; conditions: DCPIP as electron acceptor, pH 7.2
Description: Chloroplasts were prepared from spinach (Spinacia oleracea L.) according to ref. [54]. The inhibition of photosynthetic electron transport (PET) in spinach chloroplasts was determined spectrophotometrically (Genesys 6, Thermo Scientific, USA) using an artificial electron acceptor 2,6-dichlorophenol-indophenol (DCIPP) according to ref. [55], and the rate of photosynthetic electron transport was monitored as a photoreduction of DCPIP. The measurements were carried out in phosphate buffer (0.02 mol/L, pH 7.2) containing sucrose (0.4 mol/L), MgCl2 (0.005 mol/L) and NaCl (0.015 mol/L). The chlorophyll content was 30 mg/L in these experiments, and the samples were irradiated (~100 W/m^2) from 10 cm distance with a halogen lamp (250 W) using a 4 cm water filter to prevent warming of the samples (suspension temperature 22 °C). The studied compounds were dissolved in DMSO due to their limited water solubility.

[9] = system: Chlorella vulgaris; assay: Reduction of chlorophyll content in green algae Chlorella vulgaris; assay type: cell-based, Chlorella vulgaris Beij.; conditions: 168 h; for inhibition at 100 µM: 100 μmol/L of the compound, 7-day cultivation, read-out: Chlorella vulgaris reduction of Chl. cont.; for IC50: read-out: Chlorella vulgaris IC50 (50% reduction of chlorophyll content), 7-day cultivation
Description: (photoperiod 16 h light/8 h dark; photosynthetically active radiation (PAR) 80 μmol/m^2s; pH 7.2). The effect of rhodanine compounds on algal chlorophyll (Chl) content was determined after 7-day cultivation in the presence of the compounds tested, expressing the response as percentage of the corresponding values obtained for control. The Chl content in the algal suspension was determined spectrophotometrically (Genesys 6, Thermo Scientific, USA) after extraction into methanol according to Wellburn [58].

[10] = system: photosynthetic electron transport (PET) in spinach chloroplasts; parameters: method as in earlier work; conditions: standard DCMU; ref [56]; cited from earlier work

Row | SMILES | log k [7] | IC50 [8] | inhibition at 100 µM [9] | also measured
1 | O=C1CSC(=S)N1 [rhodanine] | – | – | – | inhibition of germination of seeds of Sesamum indicum [1]: inhibited; IC50 ([2]; assay done after illumination for 3 min): 100 µM; IC50 ([2]; normal 1 min assay): ~1000 µM; inhibition of chlorophyll synthesis in cotyledons [3]: strongly inhibited; inhibition of growth of Daucus carota [4]: strongly inhibited; inhibition of growth of immature cells [5]: completely inhibited; inhibition of germination of seeds of Daucus carota [6]: inhibited
2 | O=C1NC(=S)S/C1=C\c1ccco1 [Compound 16, (5Z)-5-(Furan-2-ylmethylidene)-2-thioxo-1,3-thiazolidin-4-one] | 0.4656 | – | – | –
3 | O=C1NC(=S)S/C1=C\c1ccc([N+](=O)[O-])cc1 [Compound 7c, (5Z)-5-(4-Nitrobenzylidene)-2-thioxo-1,3-thiazolidin-4-one] | 0.2436 | 20.1 µM | 87.1% | IC50 [9]: 21.9 µM
4 | O=C1NC(=S)S/C1=C\c1ccc(O)cc1O [Compound 3, (5Z)-5-(2,4-Hydroxybenzylidene)-2-thioxo-1,3-thiazolidin-4-one] | 0.2776 | – | 48.5% | IC50 [9]: 108 µM
5 | O=C1NC(=S)S/C1=C\c1cnccn1 [Compound 15, (5Z)-5-(Pyrazin-2-ylmethylidene)-2-thioxo-1,3-thiazolidin-4-one] | 0.2359 | 216 µM | 1.8% | –
6 | CN(C)c1ccc(/C=C2\SC(=S)NC2=O)cc1 [Compound 6, (5Z)-5-[(4-Dimethylamino)benzylidene]-2-thioxo-1,3-thiazolidin-4-one] | 0.6466 | – | 12.6% | –
7 | O=C1NC(=S)S/C1=C\c1ccccn1 [Compound 12, (5Z)-5-(Pyridin-2-ylmethylidene)-2-thioxo-1,3-thiazolidin-4-one] | 0.4864 | – | – | –
8 | O=C1NC(=S)S/C1=C\c1ccc(O)cc1 [Compound 2c, (5Z)-5-(4-Hydroxybenzylidene)-2-thioxo-1,3-thiazolidin-4-one] | 0.2641 | – | 29.8% | –
9 | COc1cc(/C=C2\SC(=S)NC2=O)ccc1O [Compound 5, (5Z)-5-(4-Hydroxy-3-methoxybenzylidene)-2-thioxo-1,3-thiazolidin-4-one] | 0.3553 | – | 19.4% | –
10 | COc1cccc(/C=C2\SC(=S)NC2=O)c1 [Compound 4b, (5Z)-5-(3-Methoxybenzylidene)-2-thioxo-1,3-thiazolidin-4-one] | 0.5713 | 221 µM | – | –
11 | COc1ccc(/C=C2\SC(=S)NC2=O)cc1 [Compound 4c, (5Z)-5-(4-Methoxybenzylidene)-2-thioxo-1,3-thiazolidin-4-one] | 0.5425 | 174 µM | – | –
12 | CN(C)C(=O)Nc1ccc(Cl)c(Cl)c1 [DCMU, 3-(3,4-dichlorophenyl)-1,1-dimethylurea] | – | – | – | IC50 [9]: ~7.3 µM; IC50 [10]: ~1900 nM and 1900 nM
13 | O=C1NC(=S)S/C1=C\c1ccccc1O [Compound 2a, (5Z)-5-(2-Hydroxybenzylidene)-2-thioxo-1,3-thiazolidin-4-one] | 0.4664 | 369 µM | 59% | IC50 [9]: 59.4 µM
14 | O=C1NC(=S)S/C1=C\c1cccc([N+](=O)[O-])c1 [Compound 7b, (5Z)-5-(3-Nitrobenzylidene)-2-thioxo-1,3-thiazolidin-4-one] | 0.2399 | 16.9 µM | 85.7% | IC50 [9]: 4.4 µM
15 | O=C1NC(=S)S/C1=C\c1cccc(O)c1 [Compound 2b, (5Z)-5-(3-Hydroxybenzylidene)-2-thioxo-1,3-thiazolidin-4-one] | 0.2744 | 444 µM | 9.6% | –
16 | O=C1NC(=S)S/C1=C\c1ccccc1[N+](=O)[O-] [Compound 7a, (5Z)-5-(2-Nitrobenzylidene)-2-thioxo-1,3-thiazolidin-4-one] | 0.2254 | 428 µM | – | –
17 | O=C1NC(=S)S/C1=C\c1ccncc1 [Compound 14, (5Z)-5-(Pyridin-4-ylmethylidene)-2-thioxo-1,3-thiazolidin-4-one] | 0.1878 | – | – | –
18 | O=C1NC(=S)S/C1=C\c1cccnc1 [Compound 13, (5Z)-5-(Pyridin-3-ylmethylidene)-2-thioxo-1,3-thiazolidin-4-one] | 0.4539 | – | – | –
19 | COc1ccccc1/C=C1\SC(=S)NC1=O [Compound 4a, (5Z)-5-(2-Methoxybenzylidene)-2-thioxo-1,3-thiazolidin-4-one] | 0.5867 | – | – | –
20 | O=C(O)CN1C(=O)CSC1=S [rhodanine-N-acetic acid] | – | – | – | inhibition of germination of seeds of Sesamum indicum [1]: inhibited; inhibition of growth of Daucus carota [4]: strongly inhibited; inhibition of germination of seeds of Daucus carota [6]: inhibited

Continued, in another order:

Row | log k [7] | IC50 [8] | SMILES | inhibition at 100 µM [9] | also measured
21 | 0.6077 | – | O=C1/C(=C/c2cccc([N+](=O)[O-])c2)SC(=S)N1CCO [Compound 11b, (5Z)-3-(2-Hydroxyethyl)-5-(3-nitrobenzylidene)-2-thioxo-1,3-thiazolidin-4-one] | – | –
22 | 1.0270 | 17 µM | O=C1NC(=S)S/C1=C\c1cccc(Cl)c1 [Compound 9b, (5Z)-5-(3-Chlorobenzylidene)-2-thioxo-1,3-thiazolidin-4-one] | – | –
23 | 0.9019 | 53.3 µM | O=C1NC(=S)S/C1=C\c1ccccc1Cl [Compound 9a, (5Z)-5-(2-Chlorobenzylidene)-2-thioxo-1,3-thiazolidin-4-one] | – | –
24 | 0.7909 | 63.5 µM | O=C1NC(=S)S/C1=C\c1ccc(F)cc1 [Compound 8c, (5Z)-5-(4-Fluorobenzylidene)-2-thioxo-1,3-thiazolidin-4-one] | – | –
25 | 0.8204 | 23.8 µM | O=C1NC(=S)S/C1=C\c1cccc(F)c1 [Compound 8b, (5Z)-5-(3-Fluorobenzylidene)-2-thioxo-1,3-thiazolidin-4-one] | – | –
26 | 0.4751 | 127 µM | O=C1/C(=C/c2ccccc2[N+](=O)[O-])SC(=S)N1CCO [Compound 11a, (5Z)-3-(2-Hydroxyethyl)-5-(2-nitrobenzylidene)-2-thioxo-1,3-thiazolidin-4-one] | – | –
27 | 0.6349 | – | O=C1/C(=C/c2ccc([N+](=O)[O-])cc2)SC(=S)N1CCO [Compound 11c, (5Z)-3-(2-Hydroxyethyl)-5-(4-nitrobenzylidene)-2-thioxo-1,3-thiazolidin-4-one] | – | –
28 | 0.6940 | 3 µM | O=C1NC(=S)S/C1=C\c1ccc(Br)cc1 [Compound 10c, (5Z)-5-(4-Bromobenzylidene)-2-thioxo-1,3-thiazolidin-4-one] | – | –
29 | 0.5936 | 6 µM | O=C1NC(=S)S/C1=C\c1ccc(Cl)cc1 [Compound 9c, (5Z)-5-(4-Chlorobenzylidene)-2-thioxo-1,3-thiazolidin-4-one] | 84.8% | IC50 [9]: 1.3 µM
30 | 0.8108 | 99.5 µM | O=C1NC(=S)S/C1=C\c1ccccc1F [Compound 8a, (5Z)-5-(2-Fluorobenzylidene)-2-thioxo-1,3-thiazolidin-4-one] | – | –
31 | 0.9368 | 18.1 µM | O=C1NC(=S)S/C1=C\c1ccccc1Br [Compound 10a, (5Z)-5-(2-Bromobenzylidene)-2-thioxo-1,3-thiazolidin-4-one] | – | –
32 | 1.0820 | 5.2 µM | O=C1NC(=S)S/C1=C\c1cccc(Br)c1 [Compound 10b, (5Z)-5-(3-Bromobenzylidene)-2-thioxo-1,3-thiazolidin-4-one] | – | –
